In US12077503B2, “Substituted cyclic amides and their use as herbicides” (FMC CORPORATION, priority 2015, dated 2024):

Legend:
Type in all cases: in vivo
[1] = test system: ragweed (common ragweed, Ambrosia elatior); assay: Test E preemergence; settings: scale 0 to 100
Procedure, shortened: (§1)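 Visual ratings from 0 (no effect) to 100 (complete control) were made versus controls 14 to 21 d after treatment. Seeds in silt loam were treated preemergence, or plants 2 to 18 cm tall in peat-based medium postemergence, with the test chemical in a surfactant-containing, non-phytotoxic solvent mixture, then held in a greenhouse.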

[2] = test system: arrowleaf Sida (Sida rhombifolia); assay: Test E preemergence; settings: scale 0 to 100
Procedure, shortened: as §1

[3] = test system: nightshade (eastern black nightshade, Solanum ptycanthum); assay: Test E preemergence; settings: scale 0 to 100
Procedure, shortened: as §1

[4] = test system: foxtail, green (green foxtail, Setaria viridis); assay: Test E preemergence; settings: scale 0 to 100
Procedure, shortened: as §1

[5] = test system: horseweed (Conyza canadensis); assay: Test E preemergence; settings: scale 0 to 100
Procedure, shortened: as §1

[6] = test system: nutsedge, yellow (yellow nutsedge, Cyperus esculentus); assay: Test E preemergence; settings: scale 0 to 100
Procedure, shortened: as §1

Kochia (Kochia scoparia) = assay: Test E preemergence; settings: scale 0 to 100
Procedure, shortened: as §1

[7] = test system: surinam grass (Brachiaria decumbens); assay: Test E preemergence; settings: scale 0 to 100
Procedure, shortened: as §1

[8] = test system: ryegrass, Italian (Italian ryegrass, Lolium multiflorum); assay: Test E preemergence; settings: scale 0 to 100
Procedure, shortened: as §1

[9] = test system: pigweed, palmer (palmer pigweed, Amaranthus palmeri); assay: Test E preemergence; settings: scale 0 to 100
Procedure, shortened: as §1

[10] = test system: foxtail, giant (giant foxtail, Setaria faberii); assay: Test E preemergence; settings: scale 0 to 100
Procedure, shortened: as §1

[11] = test system: barnyardgrass (Echinochloa crus-galli); assay: Test E preemergence; settings: scale 0 to 100
Procedure, shortened: as §1

[12] = test system: crabgrass, large (large crabgrass, Digitaria sanguinalis); assay: Test C postemergence; settings: scale 0 to 100, 0 no effect, 100 complete control
Description: (§2) Seeds of plant species selected from blackgrass (Alopecurus myosuroides), ryegrass, Italian (Italian ryegrass, Lolium multiflorum), wheat (winter wheat, Triticum aestivum), Galium (catchweed bedstraw, Galium aparine), corn (Zea mays), crabgrass, large (large crabgrass, Digitaria sanguinalis), foxtail, giant (giant foxtail, Setaria faberii), johnsongrass (Sorghum halepense), lambsquarters (Chenopodium album), morningglory (Ipomoea coccinea), nutsedge, yellow (yellow nutsedge, Cyperus esculentus), pigweed (Amaranthus retroflexus), ragweed (common ragweed, Ambrosia elatior), soybean (Glycine max), barnyardgrass (Echinochloa crus-galli), oilseed rape (Brassica napus), waterhemp (common waterhemp, Amaranthus rudis) and velvetleaf (Abutilon theophrasti) were planted into a blend of loam soil and sand and treated preemergence with test chemicals formulated in a non-phytotoxic solvent mixture which included a surfactant.
(§3) At the same time, plants selected from these crop and weed species and also Kochia (Kochia scoparia), oat, wild (wild oat, Avena fatua), and chickweed (common chickweed, Stellaria media) were planted in pots containing Sunshine Redi-Earth® planting medium comprising spaghnum peat moss, vermiculite, starter nutrients and dolomitic limestone and treated with postemergence applications of test chemicals formulated in the same manner. Plants ranged in height from 2 to 18 cm (1- to 4-leaf stage) for postemergence treatments. Treated plants and controls were maintained in a greenhouse for 13 to 15 d, after which time all species were compared to controls and visually evaluated. Plant response ratings, summarized in Table C, are based on a scale of 0 to 100 where 0 is no effect and 100 is complete control. A dash (-) response means no test result.

[13] = test system: lambsquarters (Chenopodium album); assay: Test C postemergence; settings: scale 0 to 100, 0 no effect, 100 complete control
Description: as §2, §3

[14] = test system: pigweed (Amaranthus retroflexus); assay: Test C postemergence; settings: scale 0 to 100, 0 no effect, 100 complete control
Description: as §2, §3

Compound: CN1CC(c2cccc(OC(F)(F)C(F)F)c2)C(C(=O)Nc2cccc(F)c2F)C1=O (stereo not drawn) [Compound 392]
- Plant response rating: Ragweed ([1]; 31 g ai/ha): 0
- Plant response rating: Ragweed ([1]; 62 g ai/ha): 0
- Plant response rating: Ragweed ([1]; 125 g ai/ha): 0
- Plant response rating: Ragweed ([1]; 250 g ai/ha): 65
- Plant response rating: Arrowleaf Sida ([2]; 31 g ai/ha): 0
- Plant response rating: Arrowleaf Sida ([2]; 62 g ai/ha): 15
- Plant response rating: Arrowleaf Sida ([2]; 125 g ai/ha): 65
- Plant response rating: Arrowleaf Sida ([2]; 250 g ai/ha): 80
- Plant response rating: Nightshade ([3]; 31 g ai/ha): 20
- Plant response rating: Nightshade ([3]; 62 g ai/ha): 80
- Plant response rating: Nightshade ([3]; 125 g ai/ha): 90
- Plant response rating: Nightshade ([3]; 250 g ai/ha): 90
- Plant response rating: Foxtail, Green ([4]; 31 g ai/ha): 65
- Plant response rating: Foxtail, Green ([4]; 62 g ai/ha): 90
- Plant response rating: Foxtail, Green ([4]; 125 g ai/ha): 95
- Plant response rating: Foxtail, Green ([4]; 250 g ai/ha): 98
- Plant response rating: Horseweed ([5]; 31 g ai/ha): 0
- Plant response rating: Horseweed ([5]; 62 g ai/ha): 0
- Plant response rating: Horseweed ([5]; 125 g ai/ha): 98
- Plant response rating: Horseweed ([5]; 250 g ai/ha): 100
- Plant response rating: Nutsedge, Yellow ([6]; 31 g ai/ha): 0
- Plant response rating: Nutsedge, Yellow ([6]; 62 g ai/ha): 0
- Plant response rating: Nutsedge, Yellow ([6]; 125 g ai/ha): 0
- Plant response rating: Nutsedge, Yellow ([6]; 250 g ai/ha): 0
- Plant response rating: Kochia (Kochia (Kochia scoparia); 31 g ai/ha): 85
- Plant response rating: Kochia (Kochia (Kochia scoparia); 62 g ai/ha): 90
- Plant response rating: Kochia (Kochia (Kochia scoparia); 125 g ai/ha): 80
- Plant response rating: Kochia (Kochia (Kochia scoparia); 250 g ai/ha): 90
- Plant response rating: Surinam Grass ([7]; 31 g ai/ha): 0
- Plant response rating: Surinam Grass ([7]; 62 g ai/ha): 0
- Plant response rating: Surinam Grass ([7]; 125 g ai/ha): 15
- Plant response rating: Surinam Grass ([7]; 250 g ai/ha): 30
- Plant response rating: Ryegrass, Italian ([8]; 31 g ai/ha): 0
- Plant response rating: Ryegrass, Italian ([8]; 62 g ai/ha): 10
- Plant response rating: Ryegrass, Italian ([8]; 125 g ai/ha): 60
- Plant response rating: Ryegrass, Italian ([8]; 250 g ai/ha): 70
- Plant response rating: Pigweed, Palmer ([9]; 31 g ai/ha): 0
- Plant response rating: Pigweed, Palmer ([9]; 62 g ai/ha): 20
- Plant response rating: Pigweed, Palmer ([9]; 125 g ai/ha): 35
- Plant response rating: Pigweed, Palmer ([9]; 250 g ai/ha): 90
- Plant response rating: Foxtail, Giant ([10]; 31 g ai/ha): 90
- Plant response rating: Foxtail, Giant ([10]; 62 g ai/ha): 95
- Plant response rating: Foxtail, Giant ([10]; 125 g ai/ha): 98
- Plant response rating: Foxtail, Giant ([10]; 250 g ai/ha): 98
- Plant response rating: Barnyardgrass ([11]; 31 g ai/ha): 85
- Plant response rating: Barnyardgrass ([11]; 62 g ai/ha): 70
- Plant response rating: Barnyardgrass ([11]; 125 g ai/ha): 90
- Plant response rating: Barnyardgrass ([11]; 250 g ai/ha): 95

Compound: CN1CC(c2ccc(F)c(F)c2)C(C(=O)Nc2ccccc2S(C)(=O)=O)C1=O (stereo not drawn) [Compound 640]
- Plant response rating, Crabgrass, Large ([12]; 31 g ai/ha): 0
- Plant response rating, Crabgrass, Large ([12]; 62 g ai/ha): 0
- Plant response rating, Crabgrass, Large ([12]; 125 g ai/ha): 10
- Plant response rating, Crabgrass, Large ([12]; 250 g ai/ha): 35
- Plant response rating, Lambsquarters ([13]; 31 g ai/ha): 30
- Plant response rating, Lambsquarters ([13]; 62 g ai/ha): 20
- Plant response rating, Lambsquarters ([13]; 125 g ai/ha): 70
- Plant response rating, Lambsquarters ([13]; 250 g ai/ha): 40
- Plant response rating, Pigweed ([14]; 31 g ai/ha): 10
- Plant response rating, Pigweed ([14]; 62 g ai/ha): 35
- Plant response rating, Pigweed ([14]; 125 g ai/ha): 35
- Plant response rating, Pigweed ([14]; 250 g ai/ha): 55
